Reference: US20220356174A1, “PYRIDIN-2-ONE COMPOUNDS USEFUL AS SMARCA2 ANTAGONISTS” (Epizyme, Inc., priority 2018, published 2022)
Where two headings read alike, the source gives them in different places.

How the values were obtained:
FL-SMARCA4 = FL-SMARCA4 (Homo sapiens, UniProt P51532); experiment: SMARCA4 ATPase activity assay (ADP-Glo, chicken mononucleosome substrate)
[1] = molecular target: T1, FL-SMARCA2 (full-length human SMARCA2 isoform 1) (Homo sapiens, UniProt P51531); experiment: SMARCA2 ATPase activity assay (ADP-Glo, chicken mononucleosome substrate); assay type: biochemical; conditions: ATP 250 uM
T1 construct: FLAG tag (YKDDDDK) (C); made in house; host or cells: Sf21 insect cells (baculovirus, pFastBacI)
T1 sequence (P51531 with tags, fused parts or gaps): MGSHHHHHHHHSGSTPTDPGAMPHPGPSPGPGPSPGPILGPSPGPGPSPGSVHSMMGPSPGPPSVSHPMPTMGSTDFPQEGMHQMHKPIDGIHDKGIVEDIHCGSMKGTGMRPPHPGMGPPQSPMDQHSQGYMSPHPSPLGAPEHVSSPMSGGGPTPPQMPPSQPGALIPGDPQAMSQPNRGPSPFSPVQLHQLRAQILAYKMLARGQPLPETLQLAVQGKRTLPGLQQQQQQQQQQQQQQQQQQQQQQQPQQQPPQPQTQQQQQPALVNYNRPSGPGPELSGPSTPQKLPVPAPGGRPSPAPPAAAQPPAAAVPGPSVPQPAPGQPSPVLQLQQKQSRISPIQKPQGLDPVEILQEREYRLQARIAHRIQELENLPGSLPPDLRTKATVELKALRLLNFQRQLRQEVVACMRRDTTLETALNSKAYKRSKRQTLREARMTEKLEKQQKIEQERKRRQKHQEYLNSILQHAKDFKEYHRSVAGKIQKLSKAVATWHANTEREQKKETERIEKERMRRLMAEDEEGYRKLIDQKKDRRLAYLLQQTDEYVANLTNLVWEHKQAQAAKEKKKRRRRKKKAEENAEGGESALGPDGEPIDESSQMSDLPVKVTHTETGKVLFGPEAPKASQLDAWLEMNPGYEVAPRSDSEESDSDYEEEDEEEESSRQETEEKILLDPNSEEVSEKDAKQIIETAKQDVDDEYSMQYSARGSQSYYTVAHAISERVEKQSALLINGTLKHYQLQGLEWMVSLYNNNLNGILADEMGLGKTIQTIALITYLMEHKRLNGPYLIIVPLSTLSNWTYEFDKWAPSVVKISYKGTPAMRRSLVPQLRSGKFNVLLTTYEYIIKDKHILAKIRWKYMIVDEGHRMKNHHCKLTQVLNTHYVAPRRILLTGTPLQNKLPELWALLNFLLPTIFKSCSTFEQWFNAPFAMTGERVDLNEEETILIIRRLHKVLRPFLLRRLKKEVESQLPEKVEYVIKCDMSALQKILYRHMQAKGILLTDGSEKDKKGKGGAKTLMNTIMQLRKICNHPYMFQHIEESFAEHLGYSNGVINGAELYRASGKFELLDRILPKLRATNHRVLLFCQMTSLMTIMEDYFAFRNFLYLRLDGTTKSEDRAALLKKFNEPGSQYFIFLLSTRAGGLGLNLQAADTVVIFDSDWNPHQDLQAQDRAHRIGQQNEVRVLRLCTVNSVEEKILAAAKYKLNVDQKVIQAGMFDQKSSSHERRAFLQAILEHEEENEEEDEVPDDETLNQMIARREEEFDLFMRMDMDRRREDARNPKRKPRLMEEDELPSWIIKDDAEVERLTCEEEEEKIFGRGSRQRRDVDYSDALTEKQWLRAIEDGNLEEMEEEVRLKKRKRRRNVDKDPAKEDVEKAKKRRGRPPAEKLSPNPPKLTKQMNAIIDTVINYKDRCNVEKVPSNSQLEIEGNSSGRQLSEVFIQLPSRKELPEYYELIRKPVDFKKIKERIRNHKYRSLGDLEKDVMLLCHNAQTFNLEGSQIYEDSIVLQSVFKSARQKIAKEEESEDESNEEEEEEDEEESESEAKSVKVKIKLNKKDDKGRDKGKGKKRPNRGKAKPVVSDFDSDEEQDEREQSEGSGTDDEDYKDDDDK

[2] = Table 3d.1, ATPase assay, enzyme 5 nM, chicken mononucleosome 10 nM, 30 min preincubation, read-out: FL-SMARCA2 IC>50
[3] = FL-SMARCA4 IC50, Table 3.2, ATPase assay, enzyme 5 nM, ATP 250 uM, chicken mononucleosome 10 nM, 30 min preincubation
[4] = Table 3.1, ATPase assay, enzyme 5 nM, chicken mononucleosome 10 nM, 30 min preincubation
[5] = FL-SMARCA4 IC50, Table 3a.2, SMARCA4 5 nM, ATP 250 uM, mononucleosome 10 nM
[6] = Table 3a.1, SMARCA2 5 nM, mononucleosome 10 nM
[7] = FL-SMARCA4 IC>50, Table 3c.2, ATPase assay, enzyme 5 nM, ATP 250 uM, chicken mononucleosome 10 nM, 30 min preincubation
[8] = Table 3c.1, ATPase assay, enzyme 5 nM, chicken mononucleosome 10 nM, 30 min preincubation

Sequence of FL-SMARCA4 (P51532 whole entry, canonical isoform): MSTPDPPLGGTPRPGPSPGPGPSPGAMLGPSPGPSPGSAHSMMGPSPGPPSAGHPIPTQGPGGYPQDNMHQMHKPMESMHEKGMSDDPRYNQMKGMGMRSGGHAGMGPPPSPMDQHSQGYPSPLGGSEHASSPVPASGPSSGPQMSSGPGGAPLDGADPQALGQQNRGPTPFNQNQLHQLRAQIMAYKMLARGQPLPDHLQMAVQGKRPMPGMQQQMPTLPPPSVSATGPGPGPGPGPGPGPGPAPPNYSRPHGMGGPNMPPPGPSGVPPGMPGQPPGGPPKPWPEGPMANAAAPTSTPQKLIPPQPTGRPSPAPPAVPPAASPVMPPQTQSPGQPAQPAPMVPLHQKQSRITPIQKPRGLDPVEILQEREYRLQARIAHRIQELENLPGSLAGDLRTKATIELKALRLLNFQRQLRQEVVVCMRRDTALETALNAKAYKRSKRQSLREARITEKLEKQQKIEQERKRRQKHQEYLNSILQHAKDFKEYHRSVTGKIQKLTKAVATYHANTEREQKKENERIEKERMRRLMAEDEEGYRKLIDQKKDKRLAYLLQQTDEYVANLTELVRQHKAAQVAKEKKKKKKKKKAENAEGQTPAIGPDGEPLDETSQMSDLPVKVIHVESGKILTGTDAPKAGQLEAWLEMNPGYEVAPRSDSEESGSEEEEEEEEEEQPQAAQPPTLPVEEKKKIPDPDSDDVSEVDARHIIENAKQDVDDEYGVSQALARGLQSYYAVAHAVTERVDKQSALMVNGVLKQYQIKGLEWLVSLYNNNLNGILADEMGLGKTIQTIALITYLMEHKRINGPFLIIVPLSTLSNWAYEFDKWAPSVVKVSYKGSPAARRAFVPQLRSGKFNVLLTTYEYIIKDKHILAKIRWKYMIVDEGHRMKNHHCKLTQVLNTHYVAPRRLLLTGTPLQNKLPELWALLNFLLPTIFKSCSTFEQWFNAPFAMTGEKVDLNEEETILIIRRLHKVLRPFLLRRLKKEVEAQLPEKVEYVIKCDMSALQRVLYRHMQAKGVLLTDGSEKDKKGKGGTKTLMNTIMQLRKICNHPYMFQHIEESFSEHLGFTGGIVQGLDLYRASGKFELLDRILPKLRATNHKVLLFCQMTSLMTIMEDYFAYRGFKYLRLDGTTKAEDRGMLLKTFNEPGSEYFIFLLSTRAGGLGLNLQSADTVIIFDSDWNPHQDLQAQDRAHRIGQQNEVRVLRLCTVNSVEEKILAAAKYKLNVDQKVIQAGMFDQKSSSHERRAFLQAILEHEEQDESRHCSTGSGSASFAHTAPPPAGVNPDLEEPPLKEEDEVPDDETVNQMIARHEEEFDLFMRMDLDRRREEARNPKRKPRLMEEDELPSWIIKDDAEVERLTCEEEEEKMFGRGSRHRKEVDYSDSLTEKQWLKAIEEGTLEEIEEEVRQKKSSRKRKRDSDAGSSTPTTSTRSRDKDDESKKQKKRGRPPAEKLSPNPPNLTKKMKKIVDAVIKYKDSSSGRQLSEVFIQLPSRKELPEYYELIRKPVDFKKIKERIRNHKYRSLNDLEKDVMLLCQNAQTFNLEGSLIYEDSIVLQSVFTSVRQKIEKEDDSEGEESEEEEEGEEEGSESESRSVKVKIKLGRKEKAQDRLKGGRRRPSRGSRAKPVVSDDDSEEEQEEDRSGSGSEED

SMILES | IC50 (FL-SMARCA4; [3]) [µM] | IC50 [1, 4] [µM] | IC50 (FL-SMARCA4; [5]) [µM] | IC50 [1, 6] [µM] | other results
CSc1cc(NC(=O)c2cc(F)c(Cl)s2)cn(CC(F)F)c1=O [Compound 50d] | – | – | – | – | IC50 (FL-SMARCA4; FL-SMARCA4 IC50): > 50 µM; IC50 [1, 2]: 34.6 µM
CCn1cc(NC(=O)c2cc(I)cn2C)ccc1=O [Compound 51] | > 50 | 46.4 | – | – | –
CN1CC(C(=O)Nc2cc(F)c(=O)n(CCF)c2)CC1=O (stereo not shown) [Compound 51a] | – | – | > 50 | > 50 | –
Cn1ccnc1-c1cc(NC(=O)c2sc(C(F)(F)F)cc2Cl)cn(CC(F)F)c1=O [Compound 51c] | – | – | – | – | IC50 (FL-SMARCA4; [7]): > 50 µM; IC50 [1, 8]: > 50 µM
O=C(Nc1cc(F)c(=O)n(CC(F)F)c1)c1nc(Cl)c[nH]1 [Compound 51d] | – | – | – | – | IC50 (FL-SMARCA4; FL-SMARCA4 IC50): > 50 µM; IC50 [1, 2]: > 50 µM
CCn1cc(NC(=O)c2ccc(C)n2C(F)F)ccc1=O [Compound 52] | > 50 | > 50 | – | – | –
O=C(Nc1cc(F)c(=O)n(CCF)c1)N1CCCC1 [Compound 52a] | – | – | > 50 | > 50 | –
CNCCn1cc(NC(=O)c2cc(F)c(Cl)s2)cc(F)c1=O [Compound 52c] | – | – | – | – | IC50 (FL-SMARCA4; [7]): > 50 µM; IC50 [1, 8]: > 50 µM
O=C(Nc1cc(F)c(=O)n(CC(F)F)c1)c1cc(Cl)c(C#CCO)s1 [Compound 52d] | – | – | – | – | IC50 (FL-SMARCA4; FL-SMARCA4 IC50): > 50 µM; IC50 [1, 2]: 34 µM
Cn1c(C(=O)Nc2ccc(=O)n(CC(F)(F)F)c2)cc(Cl)c1Cl [Compound 53] | 16.7 | 1.48 | – | – | –
CNCCCn1cc(NC(=O)c2cc(F)c(Cl)s2)cc(F)c1=O [Compound 53c] | – | – | – | – | IC50 (FL-SMARCA4; [7]): > 50 µM; IC50 [1, 8]: > 50 µM
O=C(Nc1cc(F)c(=O)n(CC(F)F)c1)c1cc(Cl)c(C#Cc2cccnc2)s1 [Compound 53d] | – | – | – | – | IC50 (FL-SMARCA4; FL-SMARCA4 IC50): > 50 µM; IC50 [1, 2]: > 50 µM
O=C(Nc1ccc(=O)n(Cc2ccccc2)c1)c1ccc(Br)s1 [Compound 54] | > 50 | > 50 | – | – | –
CCn1cc(NC(=O)c2c[nH]c(C)c2)ccc1=O [Compound 55] | > 50 | > 50 | – | – | –
CCn1cc(NC(=O)c2ncc(Cl)s2)ccc1=O [Compound 56] | > 50 | > 50 | – | – | –
CCn1cc(NC(=O)c2cc(Cl)c(Cl)n2Cc2ccccc2)ccc1=O [Compound 57] | > 50 | > 50 | – | – | –
Cn1c(C(=O)Nc2ccc(=O)n(CCF)c2)cc(Cl)c1Cl [Compound 58] | 13.6 | 1.3 | – | – | –
CCCn1c(C(=O)Nc2ccc(=O)n(CC)c2)cc(Cl)c1Cl [Compound 59] | > 50 | > 50 | – | – | –
CCn1cc(NC(=O)c2cc(Cl)c(Cl)n2CCF)ccc1=O [Compound 60] | 34.7 | 16.7 | – | – | –
CCn1cc(NC(=O)c2cc(Cl)c(Cl)n2C(C)C)ccc1=O [Compound 61] | > 50 | > 50 | – | – | –
CCn1cc(NC(=O)c2cc(Cl)c(Cl)n2C2CC2)ccc1=O [Compound 62] | > 50 | > 50 | – | – | –
CCn1cc(NC(=O)c2nc(Cl)cs2)ccc1=O [Compound 63] | > 50 | > 50 | – | – | –
CCn1cc(NC(=O)c2nc(Cl)c(Cl)s2)ccc1=O [Compound 64] | > 50 | > 50 | – | – | –
CCn1cc(NC(=O)c2cc(C)c(Cl)s2)ccc1=O [Compound 65] | > 50 | 28.4 | – | – | –

Continued, in another order:

IC50 (FL-SMARCA4; [3]) [µM] | IC50 [1, 4] [µM] | IC50 (FL-SMARCA4; [5]) [µM] | IC50 [1, 6] [µM] | SMILES | other results
– | – | > 50 | > 50 | O=C(Nc1cc(F)c(=O)n(CCF)c1)N1CCn2ccnc2C1 [Compound 53a] | –
– | – | > 50 | > 50 | CN1CCN(C(=O)Nc2cc(F)c(=O)n(CCF)c2)CC1=O [Compound 54a] | –
– | – | > 50 | > 50 | O=C(Nc1cc(F)c(=O)n(CCF)c1)c1ncccn1 [Compound 55a] | –
– | – | > 50 | > 50 | O=C(Nc1cc(F)c(=O)n(CCF)c1)c1ccc(Cl)cn1 [Compound 56a] | –
– | – | > 50 | > 50 | CCn1cc(NC(=O)c2cccc(C(F)(F)F)n2)ccc1=O [Compound 57a] | –
– | – | > 50 | > 50 | CCn1cc(NC(=O)c2ccc(C(F)(F)F)cn2)ccc1=O [Compound 58a] | –
– | – | > 50 | > 50 | CCn1cc(NC(=O)c2cc(C(F)(F)F)ccn2)ccc1=O [Compound 59a] | –
– | – | 46.7 | 14.3 | O=C(Nc1cc(F)c(=O)n(CCF)c1)N1CCC(Cl)=C(Cl)C1 [Compound 60a] | –
– | – | > 50 | > 50 | CCN(CC)c1nc2sc(C(=O)Nc3cc(F)c(=O)n(CCF)c3)cc2s1 [Compound 61a] | –
– | – | 48.2 | 44 | COc1ccc2nc(C(=O)Nc3cc(F)c(=O)n(CCF)c3)sc2c1 [Compound 62a] | –
– | – | > 50 | > 50 | O=C(Nc1cc(F)c(=O)n(CCF)c1)c1cc2n(n1)CCNC2=O [Compound 64a] | –
